The record followed here is patent publication US5597822A, “Pharmaceutical compositions for the prevention and/or treatment a gastrointestinal diseases” (Egis Pharmaceutical, priority 1993, dated 1997).

Values after ≈ are worked out from the molar mass of the structure shown. Like-named read-outs stand apart in the source and are kept apart here. Where only a bound is given, the exact number is not on record here.

For data set [1], the system named is gastric erosions induced by ethanol containing hydrochloric acid. Kind of data set: Test with ethanol containing hydrochloric acid (gastric erosions). Type of data set: in vivo, rat. Conditions: for Inhibition of the erosion index, relative activity: ED50 of cetraxate divided by ED50 of compound tested; for ED50: po, rat, p.o., HCl/absolute ethanol 1 to 50; for Inhibition of the erosion frequency, relative activity: related to cetraxate. How it is done: (§1) Rats of both sexes weighing 200 to 250 g, each previously starved for 24 hours, were used in this experiment. The lesions of gastric mucosa were induced by the oral administration of absolute ethanol in a dose of 1 ml/animal. After one hour following the administration, the animals were killed by an overdose of ether, the stomach was excised and the alterations of gastric mucosa were examined. The lengths of the erosions were measured and summarized (expressed in mm) for each stomach to obtain the erosion index by calculating the average value of the group. The inhibition was calculated in percentage by comparing the value of the group treated with ethanol to that of the control group treated only with the vehicle. Various doses of the compounds to be tested were administered, perorally, in a volume of 5 ml/kg using a pretreatment time of 60 minutes. Eight rats were used for each dose. /A. Robert, Gastroenterology 77, 761-767 (1979)/.
The principle of the method consists in that, simultaneously with the administration of absolute ethanol, hydrochloric acid is introduced to the stomach. Thus, the influence on systemic gastric acid inhibition action can be eliminated by the presence of the exogenous acid.
The reagent used in this test was a mixture of concentrated aqueous hydrochloric acid and absolute ethanol in a mass ratio of 1 to 50 in accordance with the dilution ratio used by Yamazaki et al., see Japan J. Pharmacol., 55, 415-424 (1991). Otherwise, the experiment was performed as described under test 2.1., however, in addition to the erosion index calculated from the lengths of the erosions in mm, the ratio of occurence of animals showing at least one gastric erosion within a test group, i.e. the erosion frequency, was also evaluated.

The nature of data set [2]: in vivo. Conditions: mouse, po, NMRI mice, 7 days, "higher than" = highest dose administered without any death. On the procedure:
The acute toxicity was determined on NMRI strain mice of both sexes weighing 20 to 25 g each by using 6 animals for each dose. The compounds to be tested were administered perorally in a volume of 20 ml/kg, the highest dose applied was 1000 mg/kg. After the administration the animals were kept under usual laboratory conditions for 7 days.
The data given as "higher than" a certain value mean the highest dose administered without noting any death of animals.

In data set [3] the test system is gastric mucosa lesions induced by absolute ethanol. Put plainly: Gastroprotective activity, test with absolute ethanol (gastric mucosa erosions). The class given is in vivo, rat. The following applies: for Relative activity related to the inhibition of the free acid: ED50 of gastric acid inhibition (Shay) related to ED50 of inhibition of gastric erosion; for ED50: po, rat, 60 min pretreatment, absolute ethanol 1 ml/animal, erosion index; for gastroprotective activity (in words): test with absolute ethanol. On the procedure:
as §1
^x Relative activity = ED50 value of the gastric acid inhibition
related to the ED50 value of the inhibition of the gastric erosion.

The subject of data set [4] is Helicobacter pylori. Kind of data set: Antibacterial effect on Helicobacter pylori (MIC, blood agar). Type of data set: cell-based. Conditions: for MIC: Helicobacter pylori, 72 h. How it is done: Helicobacter pylori strains used in these experiments were obtained from the biopsial samples of the stomachs of patients suffering from ulcerative diseases of the gastrointestinal system. From the pure culture of isolates a thick suspension was prepared with cysteine-inositol solution suitable for lyophilisation, and the suspension obtained was maintained in cold-resistant plastic ampoules in a deep-freezing chamber at a temperature of about -196 ° C. For the determination of the inhibitory effect of the compounds tested on Helicobacter pylori, blood agar containing 10 mg/liter of vancomycin and 25 mg/liter of amphotericin B was used /C. A. M. McNulty and I. C. Dent: Susceptibility of clinical isolates of Campylobacter pylori to twenty one antimicrobial agents. Book of Abstracts, 4th European Congress of Clinical Microbiology, Nice (1989)/.
The plates containing the strains were cultivated at 37° C. for 72 hours under a gaseous atmosphere containing 10 per cent of carbon dioxide and 5 per cent of oxygen /D. M. Jones et al., J. Clin. Pathol., 37, 1002 (1984)/.
The culture media were inoculated by diluting the broth culture of the strains grown overnight or with a suspension prepared from a culture obtained on a solid medium. About 10^5 of germs were applied to the surface of each plate.
A series of dilution were prepared from the compound to be-tested. The MIC (minimal inhibiting concentration) value of the compounds tested was considered to be the lowest concentration inhibiting the growth of the test organism completely.

The subject of data set [5] is gastric acid secretion. Kind of data set: Effect on the gastric acid secretion (Shay's method, pylorus ligation). The class given is in vivo, Wistar rats. Conditions: rat, p.o., test according to Shay. How it is done:
The influence of the compounds on the gastric acid secretion was examined on starved Wistar rats of both sexes weighing 180 to 240 g each by using Shay's method /H. Shay et al., Gastroenterology, 5, 45 (1945)/. The compounds to be tested were given, perorally, 3 hours before the ligation of the pylorus. Four hours after the operation, the animals were killed by an overdose of ether, the stomach was excised, the stomach content was centrifuged and the free hydrochloric acid content of the gastric juice was determined by titration in the presence of Topfer's reagent. The percentage of inhibition and then the ED50 values were determined by calculating average values for the groups and comparing those to the average values for the control group.

Setting [6] is: erosion frequency, read-out: Inhibition of the erosion frequency, ED50 p.o.
Setting [7] is: erosion index, read-out: Inhibition of the erosion index, ED50 p.o.

With `CCCCNCC(O)CO/N=C1\CCCC\C1=C/c1ccc(Cl)c(Cl)c1` (racemic) [Compound A, (R,S)-2-(E)-(3,4-dichlorophenylmethylene)-1-(E)-[(3-butylamino-2-hydroxypropoxy)imino]cyclohexane], in data set [1] (erosion index), the “Inhibition of the erosion index, relative activity” value came to 3.1. Also, the ED50 was determined as 18.8 mg/kg in data set [1] (setting [6]), 7.1 mg/kg in data set [1] (setting [7]) and 2 mg/kg in data set [3]. Besides, in data set [1] (erosion frequency), the “Inhibition of the erosion frequency, relative activity” value turned out to be 10.1. Further, the 50% lethal dose (LD50) at 168 h in data set [2] was over 1000 mg/kg. Further, in data set [3], the “Relative activity related to the inhibition of the free acid” value is reported as 60.5.
As to `CCCN(CCC)CC(O)CO/N=C1\CCCC\C1=C/c1ccc(Cl)c(Cl)c1` (racemic) [Compound B, (R,S)-2-(E)-(3,4-dichlorophenylmethylene)-1-(E)-[(3-dipropylamino-2-hydroxypropoxy)imino]cyclohexane], in data set [1] (erosion index), the “Inhibition of the erosion index, relative activity” value came out at 1.7. Besides, the figures for the ED50 in data set [1] (setting [6]), in data set [1] (setting [7]) and in data set [3] were 20.1 mg/kg, 12.7 mg/kg and 12.6 mg/kg, respectively. Further, the “Inhibition of the erosion frequency, relative activity” value in data set [1] (erosion frequency) was found to be 6.4. Besides, in data set [2], the LD50 at 168 h was over 1000 mg/kg. Further, the “Relative activity related to the inhibition of the free acid” value in data set [3] was 12.5.
Take `CCCCCCNCC(O)CO/N=C1\CCCC\C1=C/c1ccccc1` (racemic) [Compound C, (R,S)-2-(E)-(phenylmethylene)-1-(E)-[(3-hexylamino-2-hydroxypropoxy)imino]cyclohexane]: in data set [1] (setting [7]), the ED50 is 11.5 mg/kg. This compound gave an LD50 at 168 h in data set [2] of over 1000 mg/kg. Further, the MIC is 3.9 µg/mL (≈ 10.9 µM) in data set [4] (strain 867/90); 7.8 µg/mL (≈ 21.8 µM) in data set [4] (strain 1596); 3.9 µg/mL (≈ 10.9 µM) in data set [4] (strain 3842); 3.9 µg/mL (≈ 10.9 µM) in data set [4] (strain 6656); 3.9 µg/mL (≈ 10.9 µM) in data set [4] (strain 6709).
Take `CN(CC(O)CO/N=C1\CCCC\C1=C/c1ccc(Cl)cc1)C1CCCCC1` (racemic) [Compound D, (R,S)-2-(E)-(4-chlorophenylmethylene)-1-(E)-[3'-(N-methyl-N-cyclohexylamino)-2'-hydroxypropoxyimino]cyclohexane]: the “Inhibition of the erosion index, relative activity” value in data set [1] (erosion index) is on record as 4.2. Besides, the median effective dose (ED50) in data set [1] (setting [6]) was determined as 8.3 mg/kg; in data set [1] (setting [7]), 5.2 mg/kg; in data set [3], 2.6 mg/kg. Moreover, the “Inhibition of the erosion frequency, relative activity” value in data set [1] (erosion frequency) was 22.8. In data set [2], this compound returned a 50% lethal dose (LD50) at 168 h of over 1000 mg/kg. For the same compound, in data set [3], the “Relative activity related to the inhibition of the free acid” value is on record as 32.3. Moreover, the minimal inhibitory concentration (MIC) in data set [4] (strain 867/90), in data set [4] (strain 1596), in data set [4] (strain 3842), in data set [4] (strain 6656) and in data set [4] (strain 6709) was 15.6 µg/mL (≈ 38.5 µM) throughout.
Turning to `OC(CNC1CCCCC1)CO/N=C1\CCCC\C1=C/c1ccc(Cl)cc1` (racemic) [Compound E, (R,S)-2-(E)-(4-chlorophenylmethylene)-1-(E)-[(3-cyclohexylamino-2-hydroxypropoxy)imino]cyclohexane], the 50% effective dose (ED50) in data set [1] (setting [7]) turned out to be 10.3 mg/kg. Besides, the “Inhibition of the erosion frequency, relative activity” value in data set [1] (erosion frequency) is given as 3-6. Also, in data set [2], the median lethal dose (LD50) at 168 h is over 1000 mg/kg.
Turning to `CCCCCCNCC(O)CO/N=C1\CCCC\C1=C/c1ccc(Cl)cc1` (racemic) [Compound F, (R,S)-2-(E)-(4-chlorophenylmethylene)-1-(E)-[(3-hexylamino-2-hydroxypropoxy)imino]-cyclohexane], in data set [1] (setting [7]), the ED50 is 7.2 mg/kg. The same compound came in with a 50% lethal dose (LD50) at 168 h in data set [2] of over 1000 mg/kg.
Regarding `CN(C)CC(O)CO/N=C1\CCCC\C1=C/c1ccc(Cl)cc1` (racemic) [Compound G, (R,S)-2-(E)-(4-chlorophenylmethylene)-1-(E)-[(3-dimethylamino-2-hydroxypropoxy)imino]cyclohexane], the 50% effective dose (ED50) in data set [1] (setting [7]) is 15.8 mg/kg. The “Inhibition of the erosion frequency, relative activity” value in data set [1] (erosion frequency) is 3-6. In addition, the “Relative activity related to the inhibition of the free acid” value in data set [3] is 60-125. For the same compound, the MIC in data set [4] (strain 867/90) was 31.2 µg/mL (≈ 92.6 µM); in data set [4] (strain 1596), 125 µg/mL (≈ 371 µM); in data set [4] (strain 3842), 62.5 µg/mL (≈ 186 µM); in data set [4] (strain 6656), 31.2 µg/mL (≈ 92.6 µM); in data set [4] (strain 6709), 125 µg/mL (≈ 371 µM).
In the case of `CCCCNCC(O)CO/N=C1\CCCC\C1=C/c1ccc(Cl)cc1` (racemic) [Compound L, (R,S)-2-(E)-(4-chlorophenylmethylene)-1-(E)-[(3-butylamino-2-hydroxypropoxy)imino]cyclohexane], the “Inhibition of the erosion index, relative activity” value in data set [1] (erosion index) worked out at 2.2. The values for the ED50 in data set [1] (setting [6]), in data set [1] (setting [7]) and in data set [3] were 30 to 60 mg/kg, 9.8 mg/kg and 7.6 mg/kg, respectively. In addition, the “Inhibition of the erosion frequency, relative activity” value in data set [1] (erosion frequency) is 3-6. The LD50 at 168 h in data set [2] was found to be 1300 mg/kg. Also, the “Relative activity related to the inhibition of the free acid” value in data set [3] was 18.3.
Turning to `NC[C@H]1CC[C@H](C(=O)Oc2ccc(CCC(=O)O)cc2)CC1` [cetraxate, trans-3-[4-[4-(aminomethyl)cyclohexylcarbonyloxy]phenyl]-propionic acid, reference compound], the “gastric acid secretion inhibition (in words)” value in data set [5] was “only a moderate gastric acid secretion inhibition”. Also, the ED50 in data set [1] (setting [7]) is 22 mg/kg; in data set [3], 76.4 mg/kg. Moreover, the “gastroprotective activity (in words)” value in data set [3] is “nearly identical activity”. Further, the MIC was over 500 µg/mL in data set [4] (Table IV, strains not specified, unit inferred); over 500 µg/mL in data set [4] (strain 867/90); over 500 µg/mL in data set [4] (strain 1596); over 500 µg/mL in data set [4] (strain 3842); over 500 µg/mL in data set [4] (strain 6656); over 500 µg/mL in data set [4] (strain 6709). In data set [4] (Table IV), the “effect on Helicobacter pylori (in words)” value is “ineffective at the concentration indicated”.
Compound `COc1ccc2nc([S+]([O-])Cc3ncc(C)c(OC)c3C)[nH]c2c1` (stereo not drawn) [omeprazole, 5-methoxy-2-[[(4-methoxy-3,5-dimethyl-2-pyridyl)methyl]sulfinyl]benzimidazole, reference compound] gave an LD50 at 168 h in data set [2] of over 4000 mg/kg. Also, the “gastroprotective activity (in words)” value in data set [3] is recorded as “low gastroprotective action in a rather high dose”.

What is called ED50 is the dose at which the effect has come halfway, by size or by number of responders. A word on the LD50: it is the dose expected to kill half of the subjects tested. A high value points to a less toxic substance. The term MIC denotes the smallest concentration in the dilution series that meets the test's criterion for growth inhibition.
